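Each compound was tested at five concentrations against cells in 96-well plates for 48 hours. The concentration for 50% growth inhibition is given as GI50. TGI: total growth inhibition.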
Tests used:
Test in all cases: inhibition of tumour cell growth, NCI panel, 48 h
SK-MEL-5 melanoma = test system: SK-MEL-5 melanoma
SW-620 colon = test system: SW-620 colon
CAKI-1 renal = test system: CAKI-1 renal
T-47D breast = test system: T-47D breast
HCC-2998 colon = test system: HCC-2998 colon
DU-145 prostate = test system: DU-145 prostate
SR leukemia = test system: SR leukemia
HCT-116 colon = test system: HCT-116 colon
SNB-75 CNS = test system: SNB-75 CNS
HCT-15 colon = test system: HCT-15 colon

SMILES | TGI (SK-MEL-5 melanoma) [µM] | TGI (SW-620 colon) [µM] | TGI (CAKI-1 renal) [µM] | TGI (T-47D breast) [µM] | TGI (HCC-2998 colon) [µM] | TGI (DU-145 prostate) [µM] | TGI (SR leukemia) [µM] | TGI (HCT-116 colon) [µM] | TGI (SNB-75 CNS) [µM] | TGI (HCT-15 colon) [µM] | GI50 (SK-MEL-5 melanoma) [µM] | GI50 (SW-620 colon) [µM] | GI50 (CAKI-1 renal) [µM] | GI50 (T-47D breast) [µM] | GI50 (HCC-2998 colon) [µM] | GI50 (DU-145 prostate) [µM] | GI50 (SR leukemia) [µM] | GI50 (HCT-116 colon) [µM] | GI50 (SNB-75 CNS) [µM] | GI50 (HCT-15 colon) [µM]
O=P1(Cc2ccccc2)c2ccccc2-c2ccccc21 | 4.18 | 35 | 50.4 | 6 | 16.7 | > 100 | 26.9 | 50.9 | > 50.7 | > 100 | – | – | – | – | – | – | – | – | – | –
C=C(C)C(=O)OC1C[C@H](COC(C)=O)C2CC=C(CO)C2C2OC(=O)C(=C)[C@H]12 (stereo not given in full) | > 100 | 40 | > 100 | > 100 | > 100 | > 100 | 65.2 | 38.2 | > 100 | > 100 | – | – | – | – | – | – | – | – | – | –
COc1ccccc1C1C(C#N)=C(N)Oc2cc(O)ccc21 (stereo not given) | 71.9 | > 100 | 68.9 | 76.3 | 35.5 | 94.1 | 21.1 | 26.4 | 56.4 | > 100 | 22.4 | 29.1 | 17.7 | 13.9 | 11.7 | 26 | 3.48 | 12.5 | 23 | 23.9
Cc1cc2nnc(C(N)=O)c(N)c2cc1C | > 100 | > 100 | > 100 | > 100 | > 100 | > 100 | > 100 | > 100 | 39.6 | > 100 | – | – | – | – | – | – | – | – | – | –
CC(=O)c1c(O)n(-c2ccc(C)cc2)c(=O)c2c(N)n[nH]c12 | > 100 | > 100 | > 100 | > 100 | > 100 | > 100 | > 100 | > 100 | > 100 | > 100 | – | – | – | – | – | – | – | – | – | –
O=C(Nc1ccc2cc3ccccc3cc2c1)c1cc2c(cc1Cl)Sc1nccn1S2(=O)=O | > 100 | > 100 | > 100 | > 100 | 95.8 | > 100 | > 100 | > 100 | 81.2 | > 100 | – | – | – | – | – | – | – | – | – | –
COc1cc(S(=O)(=O)Nc2ccc(-c3csc(N4C(=O)C(Cl)C4c4cccs4)n3)cc2)ccc1Cl (stereo not given) | > 100 | > 100 | > 100 | > 100 | > 100 | > 100 | 91.5 | > 100 | > 100 | > 100 | – | – | – | – | – | – | – | – | – | –
N#Cc1c(-c2ccc([N+](=O)[O-])cc2)cc(-c2ccc(Nc3ccnc4cc(Cl)ccc34)cc2)nc1N | > 55.4 | > 100 | 40.4 | 11.1 | 43.2 | 33.2 | 2.48 | 14.7 | 34.6 | 18.6 | – | – | – | – | – | – | – | – | – | –
C=CCn1c(-c2ccc(Cl)cc2)csc1=Nc1ccccc1OC | 8.11 | > 100 | > 100 | 8.5 | > 100 | > 100 | > 100 | > 100 | > 94.3 | > 100 | – | – | – | – | – | – | – | – | – | –
COc1cc(OC)c(C2(c3c(OC(C)C)c(=O)c3=O)SCCCS2)cc1OC | > 100 | > 100 | > 100 | > 100 | > 100 | > 100 | > 100 | > 100 | > 100 | > 100 | – | – | – | – | – | – | – | – | – | –
CC(=O)n1nc(-c2ccc3ccccc3c2)nc1C | > 100 | > 100 | > 100 | > 100 | > 100 | > 100 | > 100 | > 100 | > 100 | > 100 | – | – | – | – | – | – | – | – | – | –
CCN(CC)CCN1C(=O)C(=O)N(c2cccc3ccccc23)C1=O | > 10 | > 10 | > 10 | > 10 | > 10 | > 10 | > 10 | > 10 | > 10 | > 10 | – | – | – | – | – | – | – | – | – | –
O=C1NC(=Nc2ccccc2Cl)N/C1=C\c1ccc(Cl)cc1Cl | > 100 | > 100 | > 100 | > 100 | > 100 | > 100 | > 100 | > 100 | 93 | > 100 | – | – | – | – | – | – | – | – | – | –
O=C1NC(=Nc2ccccc2)C(=Nc2ccccc2)N1c1ccccc1 | 29.7 | 30 | 31.7 | 33.2 | 30.7 | 25.2 | 51.1 | 32.3 | 30.9 | 28.2 | – | – | – | – | – | – | – | – | – | –
CCNC(=S)NNC(=O)CSc1nc2ccc(I)cc2c(=O)n1Cc1ccccc1 | > 100 | > 100 | 1.65 | > 100 | > 85.7 | > 100 | > 100 | > 77.1 | > 100 | > 100 | – | – | – | – | – | – | – | – | – | –
Cc1ccc(SCC(OCn2cnc3c(Cl)nc(N)nc32)[C@H](C)F)cc1 (stereo not given in full) | 47.6 | > 100 | > 100 | > 100 | > 100 | > 100 | > 100 | > 100 | > 100 | > 100 | – | – | – | – | – | – | – | – | – | –
CCOC(=O)c1nc2cc(C(F)(F)F)ccc2nc1Oc1ccc(F)cc1 | > 100 | > 100 | > 100 | > 100 | > 100 | > 100 | > 100 | 64.2 | > 100 | > 100 | – | – | – | – | – | – | – | – | – | –
C/C(=N\NC(N)=S)c1sc(-n2nc(-c3ccccc3)cc2-c2ccccc2)nc1C | > 100 | > 100 | > 100 | > 100 | > 100 | > 100 | > 100 | > 100 | > 100 | > 100 | – | – | – | – | – | – | – | – | – | –
COc1ccc(/C=C/C(=O)Oc2ccccc2OC)cc1 | > 100 | > 100 | > 91.1 | > 92.2 | 43.3 | > 100 | 32.3 | 9.55 | > 74.1 | 37 | – | – | – | – | – | – | – | – | – | –
NS(=O)(=O)c1nnc(NS(=O)(=O)c2ccc([N+](=O)[O-])cc2)s1 | > 100 | > 100 | > 100 | > 100 | > 100 | > 100 | > 100 | > 100 | > 100 | > 100 | – | – | – | – | – | – | – | – | – | –
COc1ccc2c(c1OC)C(=O)O[C@@H]2[C@H]1c2c(cc3c(c2OC)OCO3)CCN1C | > 100 | > 100 | > 100 | > 100 | > 100 | > 100 | > 100 | > 100 | 34 | > 100 | – | – | – | – | – | – | – | – | – | –
COc1cc(OC)c(OC)cc1/C=C/c1cc[n+](C)c2ccccc12 | 26.4 | > 100 | > 100 | > 100 | > 100 | > 100 | > 100 | > 100 | > 100 | > 100 | – | – | – | – | – | – | – | – | – | –
CC(C)=C[C@@H]1O[C@H](O)[C@@H]([C@H]2CC[C@@]3(C)[C@@H]4CC[C@H]5C(C)(C)C(=O)CC[C@@]56C[C@@]46CC[C@]23C)[C@@H]1O | 41.8 | 29.7 | 31 | 35.5 | 33.3 | 29.6 | 25.8 | 28.5 | 32.5 | 36.1 | – | – | – | – | – | – | – | – | – | –
O=c1c2c3c(sc2nc2n1N=CN(c1ccc(F)cc1)C2)CCCC3 | > 100 | > 100 | > 100 | > 100 | > 100 | > 100 | > 100 | > 100 | > 100 | > 100 | – | – | – | – | – | – | – | – | – | –
CCC(=O)Nc1ccc(NCC(=O)Nc2ccc(OC)cc2)cc1 | 32.7 | > 100 | > 100 | 70.1 | 35.5 | > 100 | > 100 | 80.3 | 34.3 | > 100 | – | – | – | – | – | – | – | – | – | –
NCCNC(=O)CN(CC(=O)O)C1CCCCC1N(CC(=O)O)CC(=O)O (stereo not given) | > 100 | > 100 | > 100 | > 100 | > 100 | > 100 | > 100 | > 100 | 94.9 | > 100 | – | – | – | – | – | – | – | – | – | –
C=CC[C@]1(C2=NC(C)(C)CO2)c2ccccc2-c2ccccc2[C@H]1C(C)=O | 12.7 | 34.4 | > 55 | > 69.5 | 20.7 | 29.6 | 14 | 20.2 | 46.2 | 26.4 | – | – | – | – | – | – | – | – | – | –
